Key:
[1] = system: NCI-H358 cells (K-Ras G12C); experiment: Potency assay: pERK in NCI-H358 cells; assay type: cell-based, human; details: Homo sapiens, NCI-H358; H358 KRAS G12C; read-out: pERK EC50
Summary of the method: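 Compounds are dosed as ten 3-fold dilutions from a 10 mM DMSO stock, in duplicate, and left on cells for 4 h at 37 °C, 5% CO2. Phospho-ERK1/2 is then quantified by AlphaLISA SureFire Ultra or In-Cell Western, and IC50 is derived from a 4-parameter sigmoid against log concentration.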

[2] = system: NCI-H358 (K-Ras G12C); experiment: CellTiter-Glo cell viability assay, NCI-H358; assay type: cell-based, human; details: Homo sapiens, NCI-H358, 120 h, NCI-H358, 5-day treatment; class symbols; read-out: Additional H358 Cell Viability assay data (K-Ras G12C, IC50)
Summary of the method: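 Luminescent viability readout on day 5 after direct compound addition to plated cells; plates sat ~30 min at room temperature before reading. Values expressed as percent of mean DMSO signal, curves fit with a four-parameter logistic model.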

[3] = biological target: KRAS G12S (Homo sapiens (Human), UniProt P01116+P62937, G12S); experiment: Ras-Raf (BRAF RBD) disruption / FRET / MOA assay, KRAS G12S; assay type: biochemical; details: Ras-Raf disruption/FRET/MOA assay; class symbols; read-out: KRAS G12S FRET data IC50
Sequence of KRAS G12S (P01116-2 other isoform, or with tags, fused parts or gaps G12S): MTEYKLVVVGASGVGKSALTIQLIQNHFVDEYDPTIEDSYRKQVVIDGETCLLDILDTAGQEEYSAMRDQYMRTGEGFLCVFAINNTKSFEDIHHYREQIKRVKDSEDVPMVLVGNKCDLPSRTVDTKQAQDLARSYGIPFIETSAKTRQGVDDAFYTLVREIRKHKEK
Sequence of KRAS G12S (P62937 whole entry): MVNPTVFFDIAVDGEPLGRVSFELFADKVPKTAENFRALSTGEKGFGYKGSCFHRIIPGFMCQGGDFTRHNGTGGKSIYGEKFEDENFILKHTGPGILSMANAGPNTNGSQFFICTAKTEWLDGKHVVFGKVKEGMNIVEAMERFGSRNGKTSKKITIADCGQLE
Summary of the method: (§1)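 Ternary complex formation (Ras–compound–cyclophilin A) displacing BRAF RBD, monitored by TR-FRET. Three hours at 25° C with compound (top 30 μM final), then 1.5 h with the labelled antibodies. Lower ratio than DMSO indicates disruption; IC50 reported.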

[4] = biological target: KRAS WT (Homo sapiens (Human), UniProt P01116+P62937); experiment: Ras-Raf (BRAF RBD) disruption / FRET / MOA assay, KRAS WT; assay type: biochemical; details: read-out: IC50* KRAS WT FRET data
Sequence of KRAS WT (P01116-2 other isoform, or with tags, fused parts or gaps): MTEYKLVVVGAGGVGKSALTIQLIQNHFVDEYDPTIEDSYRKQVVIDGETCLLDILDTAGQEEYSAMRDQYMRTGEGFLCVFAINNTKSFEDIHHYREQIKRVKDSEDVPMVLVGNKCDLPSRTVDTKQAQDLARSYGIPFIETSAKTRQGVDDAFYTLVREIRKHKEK
Sequence of KRAS WT (P62937 whole entry): as the sequence (P62937 whole entry) above
Summary of the method: as §1

[5] = biological target: NRAS Q61R (Homo sapiens (Human), UniProt P01111+P62937, Q61R); experiment: Ras-Raf (BRAF RBD) disruption / FRET / MOA assay, NRAS Q61R; assay type: biochemical; details: NRAS Q61R; Ras-Raf disruption/FRET/MOA assay; read-out: IC50* NRAS Q61R FRET data
Sequence of NRAS Q61R (P01111 whole entry Q61R): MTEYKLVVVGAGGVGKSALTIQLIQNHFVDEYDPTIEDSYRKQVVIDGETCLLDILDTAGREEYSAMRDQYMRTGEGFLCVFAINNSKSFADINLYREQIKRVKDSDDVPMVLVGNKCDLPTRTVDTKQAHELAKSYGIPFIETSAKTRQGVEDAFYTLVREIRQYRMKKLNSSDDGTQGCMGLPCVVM
Sequence of NRAS Q61R (P62937 whole entry): as the sequence (P62937 whole entry) above
Summary of the method: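 Compounds were tested as a 10-point 3-fold dilution series from 30 μM final for their ability to drive ternary complex formation between nucleotide-loaded Ras and cyclophilin A, displacing the BRAF RBD. After 3 h at 25° C., anti-His Eu-W1024 (10 nM) and anti-GST allophycocyanin (50 nM) were added for 1.5 h. A TR-FRET ratio decrease versus DMSO gave IC50.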

SMILES	EC50 [1] [µM]	IC50 [2] [µM]	IC50 [3] [µM]	IC50 [4] [µM]	IC50 [5] [µM]
C=C(C)C(=O)N1CC(N(C)C(=O)N(C)[C@H](C(=O)N[C@H]2Cc3nc(cs3)-c3ccc4c(c3)c(c(-c3cccnc3[C@H](C)OC)n4CC)CC(C)(C)COC(=O)[C@@H]3CCCN(N3)C2=O)C(C)C)C1 (atropisomer, axis not shown) [Example A360]	< 5	0.01 to 0.1	0.1 to 1	0.1 to 1	0.1 to 1
C=CC(=O)N1CC[C@H](C(=O)N(C)[C@H](C(=O)N[C@H]2Cc3nc(cs3)-c3ccc4c(c3)c(c(-c3cc5c(nc3[C@H](C)OC)CCN(C)C5)n4CC)CC(C)(C)COC(=O)[C@@H]3CCCN(N3)C2=O)C(C)C)C1 (atropisomer, axis not shown) [Example A472]	< 5	< 0.01	1 to 10	1 to 10	1 to 10
C=CC(=O)N1CCO[C@@H]2CN(C(=O)N(C)[C@H](C(=O)N[C@H]3Cc4nc(cs4)-c4ccc5c(c4)c(c(-c4cccnc4[C@H](C)OC)n5CC)CC(C)(C)COC(=O)[C@@H]4CCCN(N4)C3=O)C(C)C)C[C@@H]21 (atropisomer, axis not shown) [Example A714]	< 5	< 0.01	0.1 to 1	0.1 to 1	0.1 to 1
C=CC(=O)N1CC(OC[C@H](C(=O)N[C@H]2Cc3cc(cc(C(F)F)c3)-c3ccc4c(c3)c(c(-c3cccnc3[C@H](C)OC)n4CC)CC(C)(C)COC(=O)[C@@H]3CCCN(N3)C2=O)C(C)C)C1 (atropisomer, axis not shown) [Example A345]	< 5	0.1 to 1	> 10	> 10	> 10
CCn1c(-c2cccnc2[C@H](C)OC)c2c3cc(ccc31)-c1cnc(o1)C[C@H](NC(=O)[C@@H](COC1CN(C(=O)C#CC(C)(C)N(C)C)C1)C(C)C)C(=O)N1CCC[C@H](N1)C(=O)OCC(C)(C)C2 (atropisomer, axis not shown) [Example A649]	< 5	0.01 to 0.1	> 10	> 10	> 10
CCn1c(-c2cccnc2[C@H](C)OC)c2c3cc(ccc31)-c1csc(n1)C[C@H](NC(=O)CN1CC[C@@]3(CCN(C(=O)C#CC(C)(C)N4CCC4)C3)C1)C(=O)N1CCC[C@H](N1)C(=O)OCC(C)(C)C2 (atropisomer, axis not shown) [Example A364]	< 5	0.1 to 1	1 to 10	1 to 10	1 to 10
C=CC(=O)N1CC(OC[C@H](C(=O)N[C@H]2Cc3cc(F)cc(c3)-c3ccc4c(c3)c(c(-c3cccnc3[C@H](C)OC)n4CC(F)(F)F)CC(C)(C)COC(=O)[C@@H]3CCCN(N3)C2=O)C(C)C)C1 (atropisomer, axis not shown) [Example A725]	< 5	0.01 to 0.1	1 to 10	1 to 10	1 to 10
C=CC(=O)N1C[C@@H](N(C)C(=O)N(C)[C@H](C(=O)N[C@H]2Cc3nc(cs3)-c3ccc4c(c3)c(c(-c3cccnc3[C@H](C)OC)n4CC)CC(C)(C)COC(=O)[C@@H]3CCCN(N3)C2=O)C(C)C)[C@@H](C)C1 (atropisomer, axis not shown) [Example A583]	< 5	0.01 to 0.1	0.1 to 1	0.1 to 1	0.1 to 1
CCn1c(-c2cccnc2[C@H](C)OC)c2c3cc(ccc31)-c1csc(n1)C[C@H](NC(=O)[C@H](C(C)C)N(C)C(=O)N(C)C1CN(C(=O)/C=C/CN(C)C)C1)C(=O)N1CCC[C@H](N1)C(=O)OCC(C)(C)C2 (atropisomer, axis not shown) [Example A361]	< 5	0.01 to 0.1	0.1 to 1	0.1 to 1	0.1 to 1
C=CC(=O)N1CCC2(CC1)CN(C(=O)N(C)[C@H](C(=O)N[C@H]1Cc3nc(cs3)-c3ccc4c(c3)c(c(-c3cccnc3[C@H](C)OC)n4CC)CC(C)(C)COC(=O)[C@@H]3CCCN(N3)C1=O)C(C)C)C2 (atropisomer, axis not shown) [Example A702]	< 5	0.01 to 0.1	0.1 to 1	0.1 to 1	0.1 to 1
C=CC(=O)N1CC2(CCN(C(=O)N(C)[C@H](C(=O)N[C@H]3Cc4nc(cs4)-c4ccc5c(c4)c(c(-c4cccnc4[C@H](C)OC)n5CC)CC(C)(C)COC(=O)[C@@H]4CCCN(N4)C3=O)C(C)C)CC2)C1 (atropisomer, axis not shown) [Example A394]	< 5	< 0.01	0.1 to 1	0.1 to 1	0.1 to 1
C=CC(=O)N1CC[C@H](C(=O)N(C)[C@H](C(=O)N[C@H]2Cc3cccc(c3)-c3ccc4c(c3)c(c(-c3cccnc3[C@H](C)OC)n4CC(F)F)CC(C)(C)COC(=O)[C@@H]3CCCN(N3)C2=O)C(C)C)C1 (atropisomer, axis not shown) [Example A335]	< 5	0.01 to 0.1	1 to 10	1 to 10	1 to 10
C=CC(=O)N1CC(N2CCN(C(=O)N(C)[C@H](C(=O)N[C@H]3Cc4nc(cs4)-c4ccc5c(c4)c(c(-c4cccnc4[C@H](C)OC)n5CC)CC(C)(C)COC(=O)[C@@H]4CCCN(N4)C3=O)C(C)C)CC2)C1 (atropisomer, axis not shown) [Example A668]	< 5	0.01 to 0.1	0.1 to 1	0.1 to 1	0.1 to 1
C=CC(=O)N1CCN(C(=O)N(C)[C@H](C(=O)N[C@H]2Cc3nc(cs3)-c3ccc4c(c3)c(c(-c3cccnc3[C@H](C)OC)n4CC)CC(C)(C)COC(=O)[C@@H]3CCCN(N3)C2=O)C(C)C)[C@@H]2CC[C@@H]21 (atropisomer, axis not shown) [Example A718]	< 5	< 0.01	0.1 to 1	0.1 to 1	0.1 to 1
C=CC(=O)Nc1cnc(OC[C@H](C(=O)N[C@H]2Cc3cccc(c3)-c3ccc4c(c3)c(c(-c3cccnc3[C@H](C)OC)n4CC)CC(C)(C)COC(=O)[C@@H]3CCCN(N3)C2=O)C(C)C)n1C (atropisomer, axis not shown) [Example A600]	< 5	< 0.01	1 to 10	0.1 to 1	1 to 10
CO[C@@H](C)c1ncccc1-c1c2c3cc(ccc3n1CC(F)(F)F)N1CCO[C@@H](C[C@H](NC(=O)[C@H](C(C)C)N3CC[C@@]4(CCN(C(=O)C#CC(C)(C)N(C)C)C4)C3=O)C(=O)N3CCC[C@H](N3)C(=O)OCC(C)(C)C2)C1 (atropisomer, axis not shown) [Example A628]	< 5	0.01 to 0.1	1 to 10	> 10	> 10
C=CC(=O)N1CC[C@H](C(=O)N(C)[C@H](C(=O)N[C@H]2Cc3cccc(c3)-c3ccc4c(c3)c(c(-c3cccnc3[C@H](C)OC)n4CC)CC(C)(C)COC(=O)[C@@H]3CCCN(N3)C2=O)C(C)(C)F)C1 (atropisomer, axis not shown) [Example A693]	< 5	0.1 to 1	1 to 10	1 to 10	1 to 10
C=CC(=O)N1CCO[C@H]2CN(C(=O)N(C)[C@H](C(=O)N[C@H]3Cc4coc(n4)-c4ccc5c(c4)c(c(-c4cccnc4[C@H](C)OC)n5CC(F)(F)F)CC(C)(C)COC(=O)[C@@H]4CCCN(N4)C3=O)C(C)C)C[C@H]21 (atropisomer, axis not shown) [Example A574]	< 5	0.01 to 0.1	1 to 10	1 to 10	1 to 10
C=CC(=O)N1CCN(C(=O)N(C)[C@H](C(=O)N[C@H]2Cc3nc(cs3)-c3ccc4c(c3)c(c(-c3cccnc3[C@H](C)OC)n4CC)CC(C)(C)COC(=O)[C@@H]3CCCN(N3)C2=O)C(C)C)[C@H]2CC[C@H]21 (atropisomer, axis not shown) [Example A734]	< 5	0.01 to 0.1	0.01 to 0.1	0.01 to 0.1	0.01 to 0.1
C=CC(=O)N1CC[C@H](C(=O)N(C)[C@H](C(=O)N[C@H]2Cc3cccc(c3)-c3ccc4c(c3)c(c(-c3cccnc3[C@H](C)OC)n4CC#CC)CC(C)(C)COC(=O)[C@@H]3CCCN(N3)C2=O)C(C)C)C1 (atropisomer, axis not shown) [Example A531]	< 5	0.01 to 0.1	1 to 10	1 to 10	1 to 10
C=CC(=O)N(C)[C@H]1CN(C(=O)N(C)[C@H](C(=O)N[C@H]2Cc3nc(cs3)-c3ccc4c(c3)c(c(-c3cccnc3[C@H](C)OC)n4CC)CC(C)(C)COC(=O)[C@@H]3CCCN(N3)C2=O)C(C)C)C[C@H]1F (atropisomer, axis not shown) [Example A631]	< 5	< 0.01	0.1 to 1	0.1 to 1	0.1 to 1

Reference: patent publication US11566007B2, “Ras inhibitors” (Revolution Medicines, Inc., priority 2019, dated 2023)
